Laboratory results as given in ChEMBL document CHEMBL1137447 (Bioorg Med Chem, 2007).

Legend:
[1] = biological target: T1, Prostaglandin G/H synthase 1 (Ovis aries, UniProt P05979); test: Inhibition of ovine COX1 by enzyme immuno assay
T1 sequence (P05979 whole entry): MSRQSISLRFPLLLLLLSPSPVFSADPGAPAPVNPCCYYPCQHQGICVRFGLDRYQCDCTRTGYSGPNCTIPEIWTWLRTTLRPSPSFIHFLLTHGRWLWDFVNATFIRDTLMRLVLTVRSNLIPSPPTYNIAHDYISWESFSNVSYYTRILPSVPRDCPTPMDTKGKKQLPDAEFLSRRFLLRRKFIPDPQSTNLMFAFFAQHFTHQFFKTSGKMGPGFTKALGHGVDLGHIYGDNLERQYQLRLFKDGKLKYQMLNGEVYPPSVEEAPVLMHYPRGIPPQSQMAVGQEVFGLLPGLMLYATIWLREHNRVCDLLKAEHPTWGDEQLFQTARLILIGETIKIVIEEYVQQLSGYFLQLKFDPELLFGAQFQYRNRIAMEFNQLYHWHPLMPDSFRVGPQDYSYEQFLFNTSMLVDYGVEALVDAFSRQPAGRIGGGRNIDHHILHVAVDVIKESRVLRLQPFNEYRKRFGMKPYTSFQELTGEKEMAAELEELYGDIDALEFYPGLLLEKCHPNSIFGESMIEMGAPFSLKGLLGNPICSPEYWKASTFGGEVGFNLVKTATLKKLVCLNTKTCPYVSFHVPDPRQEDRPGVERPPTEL

Ovis aries = organism: Ovis aries; test: Selectivity index, ratio of IC50 for ovine COX1 to IC50 for ovine COX2
[2] = Effect on nitric oxide release in pH 7.4 PBS buffer at 37 degC after 1.5 hrs; assay type: functional
[3] = Effect on nitric oxide release in pH 7.4 PBS buffer in presence of rat serum at 37 degC after 1.5 hrs; assay type: functional

IC50 [1] [µM] | Ratio IC50 (Ovis aries) | Structure (SMILES) | Activity [2] [%] | Activity [3] [%]
1.1 | 0.03 | CCN(CC)/[N+]([O-])=N\OCOC(=O)/C(=C/c1ccc(S(C)(=O)=O)cc1)c1cccc(Br)c1 | 3.2 | 59.2
1 | 0.43 | CCN(CC)/[N+]([O-])=N\OCOC(=O)/C(=C/c1ccc(S(C)(=O)=O)cc1)c1ccc(F)cc1 | 7.1 | 75.3
2.5 | 0.22 | CS(=O)(=O)c1ccc(/C=C(/C(=O)OCO/N=[N+](/[O-])N2CCCC2)c2cccc(Br)c2)cc1 | 6.9 | 48.6

Further lines, the compound ahead of its results:

Structure (SMILES) | IC50 [1] [µM] | Ratio IC50 (Ovis aries) | Activity [2] [%] | Activity [3] [%]
CCN(CC)/[N+]([O-])=N\OCOC(=O)/C(=C/c1ccc(S(C)(=O)=O)cc1)c1ccc(NC(C)=O)cc1 | > 100 | > 5.9 | 6.5 | 70.4
CC(=O)Nc1ccc(/C(=C\c2ccc(S(C)(=O)=O)cc2)C(=O)OCO/N=[N+](/[O-])N2CCCC2)cc1 | > 100 | > 106 | 9.9 | 73
CCN(CC)/[N+]([O-])=N/O |  |  | 85 | 85.1
CS(=O)(=O)c1ccc(/C=C(/C(=O)OCO/N=[N+](/[O-])N2CCCC2)c2ccc(F)cc2)cc1 | > 100 | > 9.2 | 11.3 | 67.1
